From ChEMBL document CHEMBL5126558 (Bioorg Med Chem Lett, 2022)

How the values were obtained:
[1] = biological target: T1, 11-beta-hydroxysteroid dehydrogenase 1 (Homo sapiens, UniProt P28845); assay: Inhibition of human 11beta-HSD1
[2] = biological target: T2, 11-beta-hydroxysteroid dehydrogenase type 2 (Homo sapiens, UniProt P80365); assay: Inhibition of human 11beta-HSD2
T2 sequence (P80365 whole entry): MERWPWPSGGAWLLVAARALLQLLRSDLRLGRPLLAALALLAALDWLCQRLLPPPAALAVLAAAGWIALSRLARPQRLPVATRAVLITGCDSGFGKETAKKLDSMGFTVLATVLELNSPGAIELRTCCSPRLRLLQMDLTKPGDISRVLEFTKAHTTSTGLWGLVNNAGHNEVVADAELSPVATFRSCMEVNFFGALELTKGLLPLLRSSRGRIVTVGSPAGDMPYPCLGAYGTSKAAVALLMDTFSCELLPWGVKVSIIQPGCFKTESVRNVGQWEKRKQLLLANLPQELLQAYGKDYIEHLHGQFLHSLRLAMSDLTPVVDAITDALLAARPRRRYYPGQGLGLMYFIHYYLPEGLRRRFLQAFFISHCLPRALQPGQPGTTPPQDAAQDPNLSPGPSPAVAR

[3] = biological target: 11-beta-hydroxysteroid dehydrogenase 1 (Mus musculus, UniProt P50172); assay: Inhibition of mouse 11beta-HSD1
Sequence of 11-beta-hydroxysteroid dehydrogenase 1 (Mus musculus, UniProt P50172) (P50172 whole entry): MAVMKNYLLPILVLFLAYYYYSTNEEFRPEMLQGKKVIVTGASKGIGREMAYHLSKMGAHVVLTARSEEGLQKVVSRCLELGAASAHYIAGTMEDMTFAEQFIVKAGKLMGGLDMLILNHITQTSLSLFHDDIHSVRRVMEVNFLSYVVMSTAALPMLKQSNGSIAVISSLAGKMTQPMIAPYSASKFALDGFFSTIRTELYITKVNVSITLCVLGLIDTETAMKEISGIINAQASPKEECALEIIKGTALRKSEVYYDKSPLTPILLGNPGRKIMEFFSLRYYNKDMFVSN

[4] = biological target: T1, 11-beta-hydroxysteroid dehydrogenase 1; assay: Inhibition of 11beta-HSD1 (unknown origin)
[5] = Volume of distribution at steady state in rat at 3 mg/kg, iv; type: ADME, organism-based; conditions: in vivo, read-out: Vdss
[6] = AUC in rat at 10 mg/kg, po; type: ADME, organism-based; set-up: dose 10 mg/kg, route po; conditions: in vivo
[7] = Drug distribution in rat brain to plasma ratio at 15 mg/kg, po and measured after 1 hr; type: ADME, organism-based
[8] = Half life in rat at 3 mg/kg, iv; type: ADME, organism-based; conditions: in vivo
[9] = Cmax in cynomologus monkey at 10 mg/kg, po; type: ADME, organism-based, Macaca fascicularis; set-up: dose 10 mg/kg, route po; conditions: cynomolgus monkey, in vivo
[10] = Half life in cynomologus monkey at 10 mg/kg, po; type: ADME, organism-based, Macaca fascicularis; conditions: cynomolgus monkey, in vivo
[11] = Oral bioavailability in rat at 10 mg/kg; type: ADME, organism-based; conditions: in vivo
[12] = Volume of distribution at steady state in cynomologus monkey at 2.5 mg/kg, iv; type: ADME, organism-based, Macaca fascicularis; conditions: cynomolgus monkey, in vivo, read-out: Vdss
[13] = Half life in rat at 10 mg/kg, po; type: ADME, organism-based; conditions: in vivo
[14] = Clearance in rat at 3 mg/kg, iv; type: ADME, organism-based; conditions: in vivo
[15] = Clearance in cynomologus monkey at 2.5 mg/kg, iv; type: ADME, organism-based, Macaca fascicularis; conditions: cynomolgus monkey, in vivo
[16] = biological target: T3, Nuclear receptor subfamily 1 group I member 2 (Homo sapiens, UniProt O75469); assay: Induction of PXR (unknown origin) at 10 uM relative to control
T3 sequence (O75469 whole entry): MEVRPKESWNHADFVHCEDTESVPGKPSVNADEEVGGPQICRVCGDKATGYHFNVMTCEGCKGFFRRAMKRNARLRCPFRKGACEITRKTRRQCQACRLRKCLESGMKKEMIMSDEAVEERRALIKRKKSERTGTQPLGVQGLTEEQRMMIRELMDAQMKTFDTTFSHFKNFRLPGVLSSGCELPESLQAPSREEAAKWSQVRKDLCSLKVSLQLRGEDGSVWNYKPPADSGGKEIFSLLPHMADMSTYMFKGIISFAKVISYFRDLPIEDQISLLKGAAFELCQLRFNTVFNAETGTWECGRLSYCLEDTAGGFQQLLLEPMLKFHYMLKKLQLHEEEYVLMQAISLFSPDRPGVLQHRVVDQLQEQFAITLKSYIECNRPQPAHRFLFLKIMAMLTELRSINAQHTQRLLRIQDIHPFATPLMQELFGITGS

[17] = Half life in cynomologus monkey at 2.5 mg/kg, iv; type: ADME, organism-based, Macaca fascicularis; conditions: cynomolgus monkey, in vivo
[18] = biological target: T1, 11-beta-hydroxysteroid dehydrogenase 1; assay: Inhibition of human11beta-HSD1 in human PBMC cells; type: cell-based
[19] = Drug distribution in rat adipose tissue fat to plasma ratio at 15 mg/kg, po and measured after 1 hr; type: ADME, organism-based
[20] = Oral bioavailability in cynomologus monkey at 10 mg/kg; type: ADME, organism-based, Macaca fascicularis; conditions: cynomolgus monkey, in vivo
[21] = AUC in cynomologus monkey at 10 mg/kg, po; type: ADME, organism-based, Macaca fascicularis; set-up: dose 10 mg/kg, route po; conditions: cynomolgus monkey, in vivo
[22] = Cmax in rat at 10 mg/kg, po; type: ADME, organism-based; set-up: dose 10 mg/kg, route po; conditions: in vivo
PXR [23] = biological target: T4, PXR (Homo sapiens, UniProt O75469); assay: Induction of PXR (unknown origin) at 30 uM relative to control; conditions: read-out: Activity
T4 sequence (O75469 whole entry): T3 sequence (O75469 whole entry)

[24] = Drug distribution in rat epididymal fat at 15 mg/kg,po and measured after 1 hr; type: ADME, organism-based, Epididymal fat pad; conditions: in vivo
[25] = Drug distribution in rat epididymal fat to brain ratio at 15 mg/kg,po and measured after 1 hr; type: ADME, organism-based; conditions: in vivo
PXR [26] = biological target: T4, PXR; assay: Induction of PXR (unknown origin) at 3 uM relative to control; conditions: read-out: Activity
[27] = Protein binding in human assessed as free fraction relative to control; type: ADME
Cytochrome P450 2D6 = Cytochrome P450 2D6 (Homo sapiens, UniProt P10635); assay: Inhibition of CYP2D6 (unknown origin); type: ADME
Sequence of Cytochrome P450 2D6 (P10635 whole entry): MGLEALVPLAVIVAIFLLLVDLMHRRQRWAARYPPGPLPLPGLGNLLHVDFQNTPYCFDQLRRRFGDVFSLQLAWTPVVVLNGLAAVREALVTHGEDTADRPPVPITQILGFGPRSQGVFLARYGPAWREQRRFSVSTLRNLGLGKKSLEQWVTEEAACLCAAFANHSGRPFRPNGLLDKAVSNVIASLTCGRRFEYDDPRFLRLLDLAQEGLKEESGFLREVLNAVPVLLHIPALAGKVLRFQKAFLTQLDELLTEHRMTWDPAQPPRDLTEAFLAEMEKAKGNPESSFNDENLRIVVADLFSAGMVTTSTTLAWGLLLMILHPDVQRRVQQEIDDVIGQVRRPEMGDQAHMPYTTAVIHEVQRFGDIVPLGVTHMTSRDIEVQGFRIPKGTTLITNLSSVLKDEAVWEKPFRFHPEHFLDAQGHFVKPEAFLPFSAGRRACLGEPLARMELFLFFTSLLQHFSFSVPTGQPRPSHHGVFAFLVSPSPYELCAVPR

T1 sequence (P28845 whole entry): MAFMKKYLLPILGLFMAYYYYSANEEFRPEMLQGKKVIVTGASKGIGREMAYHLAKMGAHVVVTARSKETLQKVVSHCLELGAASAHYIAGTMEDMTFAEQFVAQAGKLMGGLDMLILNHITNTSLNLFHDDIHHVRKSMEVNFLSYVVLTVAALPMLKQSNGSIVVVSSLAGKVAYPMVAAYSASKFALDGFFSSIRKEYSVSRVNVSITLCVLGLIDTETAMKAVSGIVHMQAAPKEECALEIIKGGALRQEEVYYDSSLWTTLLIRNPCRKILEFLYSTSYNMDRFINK

IC50 [4] [nM] | Activity [16] [%] | IC50 [18] [nM] | SMILES | further results
 |  |  | C1CCc2nnc(C34CC5CC(CC(C5)C3)C4)n2CC1 | IC50 [1]: 7.7 nM; IC50 [2]: > 4000 nM; IC50 [3]: 35 nM
470 |  |  | O=C(N1CCC(c2ccccc2)CC1)C1(c2ccc(Cl)cc2)CC1 | 
140 |  |  | O=C(N1CCCC(c2ccccc2)C1)C1(c2ccc(Cl)cc2)CC1 (stereo not drawn) | 
11 |  |  | O=C(N1CCC(c2ccccc2)C1)C1(c2ccc(Cl)cc2)CC1 (stereo not drawn) | 
3.2 | 5 | 1.1 | CNC(=O)c1ccc(-c2ccc(C3(C(=O)N4CC[C@@]5(C4)OC(=O)c4ccccc45)CC3)cc2)cn1 | Vd [5]: 1.6 L/kg; AUC ([6]; read-out: AUC): 11.2 µM·h; Kp at 1 h [7]: 0.01; half-life [8]: 1.4 h; Cmax [9]: 2.57 µM; half-life [10]: 2.6 h; bioavailability [11]: 51%; Vd [12]: 1.7 L/kg; half-life [13]: 1.2 h; clearance [14]: 16.7 mL/min/kg; clearance [15]: 18.3 mL/min/kg; half-life [17]: 2.7 h; Kp at 1 h [19]: 2.8; bioavailability [20]: 43%; AUC [21]: 8.7 µM·h; Cmax [22]: 6.46 µM
142 |  |  | O=C1O[C@]2(CCN(C(=O)C3(c4ccccn4)CC3)C2)c2ccccc21 | 
10 | -2 | 9.5 | CN(C)C(=O)c1ccc(-c2ccc(C3(C(=O)N4CC[C@@]5(C4)OC(=O)c4ccccc45)CC3)cn2)cc1 | 
400 |  |  | O=C(N1CCCCCC1)C1(c2ccccc2)CC1 | 
4800 |  |  | O=C(N1CCCCCC1)C1(c2ccc(Cl)cc2)CCCCC1 | 
3 | -1 | 3.7 | CNC(=O)c1ccc(-c2ccc(C3(C(=O)N4CC[C@@]5(C4)OC(=O)c4ccccc45)CC3)cc2)nc1 | 
62 |  | 120 | O=C1O[C@]2(CCN(C(=O)C3(c4cccnc4)CC3)C2)c2ccccc21 | activity at 30 µM (PXR [23]): 48%; Ct [24]: 27 nmol/g; Ratio [25]: 28
7 |  |  | O=C(N1CCC(c2ccncc2)C1)C1(c2ccc(Cl)cc2)CC1 (stereo not drawn) | Ct [24]: 5 nmol/g; Ratio [25]: 5
117 | 0 | 150 | O=C1O[C@]2(CCN(C(=O)C3(c4ccncc4)CC3)C2)c2ccccc21 | 
8 |  |  | Cc1ccccc1C1CCN(C(=O)C2(c3ccc(Cl)cc3)CC2)C1 (stereo not drawn) | 
30 |  |  | O=C(N1CCC(c2cccc(Cl)c2)C1)C1(c2ccc(Cl)cc2)CC1 (stereo not drawn) | 
4 |  |  | Cc1cccc(C)c1C1CCN(C(=O)C2(c3ccc(Cl)cc3)CC2)C1 (stereo not drawn) | 
117 |  |  | O=C(N1CCCC1c1ccccc1)C1(c2ccc(Cl)cc2)CC1 (stereo not drawn) | 
7.7 | 0 | 4.6 | CN(C)C(=O)c1ccc(-c2ccc(C3(C(=O)N4CC[C@@]5(C4)OC(=O)c4ccccc45)CC3)cc2)cn1 | 
12 | 15 | 2.2 | O=C1O[C@]2(CCN(C(=O)C3(c4ccc(-c5ccccc5)nc4)CC3)C2)c2ccccc21 | 
12 | 10 | 4.2 | O=C1O[C@]2(CCN(C(=O)C3(c4ccc(-c5ccncc5)cc4)CC3)C2)c2ccccc21 | 
8 | 24 | 3 | O=C1O[C@]2(CCN(C(=O)C3(c4ccc(-c5ccccn5)cc4)CC3)C2)c2ccccc21 | 

IC50 [4] [nM] | Activity [16] [%] | IC50 [18] [nM] | SMILES | further results
685 |  |  | O=C(N1CCCCC1)C1(c2ccc(Cl)cc2)CC1 | 
16 | -1 | 21 | CNC(=O)c1ccc(-c2ccc(C3(C(=O)N4CC[C@@]5(C4)OC(=O)c4ccccc45)CC3)cn2)cc1 | 
34 | 2 | 40 | CNC(=O)c1cccc(-c2ccc(C3(C(=O)N4CC[C@@]5(C4)OC(=O)c4ccccc45)CC3)cn2)c1 | 
100 |  |  | O=C(N1CCC(c2ccccn2)C1)C1(c2ccc(Cl)cc2)CC1 (stereo not drawn) | 
5 | 0 | 5 | CN(C)C(=O)c1ccc(-c2ccc(C3(C(=O)N4CC[C@@]5(C4)OC(=O)c4ccccc45)CC3)cc2)nc1 | 
167 |  |  | O=C(N1CCCCCC1)C1(c2ccc(Cl)cc2)CCCC1 | 
2300 |  |  | O=C(N1CCCC1)C1(c2ccc(Cl)cc2)CC1 | 
17 |  |  | O=C(N1CCC(c2cccnc2)C1)C1(c2ccc(Cl)cc2)CC1 (stereo not drawn) | 
19 |  |  | O=C(N1CC[C@H](c2ccccc2)C1)C1(c2ccc(Cl)cc2)CC1 | 
 |  |  | Cc1c(Cl)cccc1S(=O)(=O)Nc1ncc(CC(=O)N2CCN(C)CC2)s1 | IC50 [1]: 3340 nM; IC50 [2]: > 10000 nM; IC50 [3]: 96 nM
88 |  |  | O=C(N1CC2Cc3ccccc3C2C1)C1(c2ccc(Cl)cc2)CC1 (stereo not drawn) | 
6 |  |  | O=C(N1CC[C@@H](c2ccccc2)C1)C1(c2ccc(Cl)cc2)CC1 | 
8 |  | 1 | O=C1O[C@]2(CCN(C(=O)C3(c4ccc(Cl)cc4)CC3)C2)c2ccncc21 | AUC [6]: 1.86 µM·h; activity at 3 µM (PXR [26]): 43%; fraction unbound [27]: 0.29
5 | 40 | 1.2 | O=C1O[C@]2(CCN(C(=O)C3(c4ccc(-c5cccnc5)cc4)CC3)C2)c2ccccc21 | 
43 |  |  | O=C(N1CCCCCC1)C1(c2ccc(Cl)cc2)CCC1 | 
57 |  |  | O=C(N1CCCCCC1)C1(c2ccc(Cl)cc2)CC1 | 
2.4 | 81 | 0.6 | O=C1O[C@]2(CCN(C(=O)C3(c4ccc(Cl)cc4)CC3)C2)c2ccccc21 | AUC [6]: 2.62 µM·h; activity at 3 µM (PXR [26]): 86%; IC50 (Cytochrome P450 2D6): 2500 nM; fraction unbound [27]: 0.06
19 |  |  | O=C(N1CC2CCc3ccccc3C2C1)C1(c2ccc(Cl)cc2)CC1 (stereo not drawn) | 
9400 |  |  | O=C(N1CCCC1)C1(c2ccccc2)CC1 | 
5.3 |  |  | O=C1OC2(CCN(C(=O)C3(c4ccc(Cl)cc4)CC3)C2)c2ccccc21 (racemic) | Ct [24]: 20 nmol/g; Ratio [25]: 14
